Results from article PMC8682738, “Constrained peptides mimic a viral suppressor of RNA silencing” (Nucleic Acids Research, 2021).
“And” between values parts separate entries of the source, which are not always exact repeats. Identical values can stand only once. Positions of bridges follow the written chain, without caps; N, C: chain ends. Non-standard residues stand in square brackets, D forms with d. Residues, ends and D or L forms follow the SMILES beside them. *: point of attachment. FITC = O=C1OC2(c3ccc(O)cc3Oc3cc(O)ccc32)c2ccc(NC(=S)*)cc21; R8 = C=CCCCCCC[C@@](C)(N)C(=O)O; S5 = C=CCCC[C@](C)(N)C(=O)O; AEEA = NCCOCCOCC(=O)O

What was measured:
[1] = test system: miR-21 duplex; assay: Thermal denaturation of miR-21 duplex (CD melting); type: binding; conditions: miR-21 2 μM, unlabeled peptide 4 μM
Method: For each sample, 10 CD spectra were measured between λ = 200 and 350 nm with continuous scan mode (1 mdeg sensitivity, 1.0 nm resolution, 1.0 nm bandwidth, 2 s integration time, 100 nm·min^−1 scan rate). Obtained spectra were averaged and then subtracted from a reference buffer spectrum. CD data were normalized to oligonucleotide strand concentration using Formula (1):(1) where θ = observed ellipticity (mdeg), c = DNA strand concentration (mol·l^−1) and l = path length (cm).
Melting temperature (Tm) determination was conducted using the same instrumentation and sample preparation, where ellipticity (θ = 267 nm) was measured by ramping the temperature from 15–90°C (4°C·min^−1 ramp, ±0.05°C equilibration tolerance, 6 s delay after equilibration). Data points were recorded every 0.5°C. Raw data was normalized as described above and Tm-values were determined using the CDpal program ([44]) before being plotted in Prism 5.0 (GraphPad).

[2] = test system: K562 cells; assay: Live cell confocal microscopy; type: cell-based, human; conditions: fluorescein-labeled peptide 1 μM, 30 min, 37°C
Method: Non-adherent K562 cells were counted and collected in 1.5 ml Eppendorf tubes at 30 000 cells per tube. After a wash, cells were re-suspended in 200 μl of phenol-red free media containing 5% FCS and fluorescein-labeled peptides (c(peptide) = 1 μM, t = 30 min) in the Eppendorf tubes at 37°C with vertical rotation to avoid cell pelleting. After incubation, cells were washed once with phenol-red free media, re-suspended again in the same media, and transferred into the wells of an 8-chamber μ-slide (Ibidi). Cells were immediately imaged at 37°C with an SP5 Laser Scanning Confocal Microscope (Leica). Fluorescein was excited with an argon ion laser at wavelength of 488 nm and fluorescence was detected in the range 505–530 nm.

[3] = CD spectroscopy, secondary structure content; type: physicochemical; conditions: fluorescein-labeled peptide 75 μM, 10 mM sodium phosphate pH 7.4, CDNN/PEPFIT; for Helix (α-helicity): unbound
[4] = test system: ds miR-21; assay: EMSA with ds miR-21; type: binding; conditions: peptide 6 μM, ds miR-21 3 μM
Method: Electrophoretic mobility shift assays (EMSAs) were performed using a Bio-Rad Mini-Protean gel system paired with a direct current (DC) power source (PowerPac™ HC, Bio-Rad). Typically, 6 μl solutions containing ds RNA (c = 3 μM) and fluorescein-labeled peptide (c = 6 μM) were incubated in binding buffer (10 mM Tris (pH 8.0), 0.5 mM EDTA, 12.5% glycerol and 150 mM KCl) at 4°C for 1 h. After incubation, bound RNA was resolved from peptide-free RNA using 10% non-denaturing polyacrylamide gels at 120 V in running buffer (25 mM Tris (pH 8.0), 200 mM glycine, 20 mM NaCl) at 4°C for 1 h. Visualization of fluorescent gel-bound species was conducted using a Typhoon Trio + fluorescence scanner (GE Healthcare Life Sciences). For nucleic acid visualization, gels were stained using 2 μl of SYBR™ gold nucleic acid gel dye (Molecular Probes) in 20 ml of TAE buffer (40 mM Tris, 1 mM EDTA, 20 mM acetic acid) for 45 min at RT before being visualized using a FluorChem™ gel documentation system (Alpha Innotech). To assess B3 binding to different ds RNA sequences (Supplementary Figure S20), 6 μl solutions containing hairpin RNA (c = 1 μM) and fluorescein-labeled B3 (c = 2 μM) were incubated in binding buffer (TAE and 10% glycerol) at RT for 1 h, and then resolved using 15% non-denaturing polyacrylamide gels (acrylamide/bis-acrylamide (19:1) in TAE) at 150 V in running buffer (TAE) at 4°C for 1.5 h. Visualization of fluorescent gel-bound species was conducted using a Bio-Rad ChemiDoc (Bio-Rad). Subsequently, gels were stained with SYBR™ gold nucleic acid gel dye (Invitrogen) as described above and visualized using the same imaging system. To assess B3 binding to pre–miR-21 (Supplementary Figure S24), the RNA was prepared at a fixed concentration (c = 1 μM) and incubated with varying concentrations of fluorescein-labeled B3 (c = 0–5 μM) in binding buffer (TAE and 10% glycerol) at RT for 1 h. […]

[5] = test system: ds pal-RNA; assay: EMSA with ds pal-RNA; type: binding; conditions: fluorescein-labeled peptide 6 μM, RNA 3 μM, 10% native PAGE, 4°C
Method: Electrophoretic mobility shift assays (EMSAs) were performed using a Bio-Rad Mini-Protean gel system paired with a direct current (DC) power source (PowerPac™ HC, Bio-Rad). Typically, 6 μl solutions containing ds RNA (c = 3 μM) and fluorescein-labeled peptide (c = 6 μM) were incubated in binding buffer (10 mM Tris (pH 8.0), 0.5 mM EDTA, 12.5% glycerol and 150 mM KCl) at 4°C for 1 h. After incubation, bound RNA was resolved from peptide-free RNA using 10% non-denaturing polyacrylamide gels at 120 V in running buffer (25 mM Tris (pH 8.0), 200 mM glycine, 20 mM NaCl) at 4°C for 1 h. Visualization of fluorescent gel-bound species was conducted using a Typhoon Trio + fluorescence scanner (GE Healthcare Life Sciences). For nucleic acid visualization, gels were stained using 2 μl of SYBR™ gold nucleic acid gel dye (Molecular Probes) in 20 ml of TAE buffer (40 mM Tris, 1 mM EDTA, 20 mM acetic acid) for 45 min at RT before being visualized using a FluorChem™ gel documentation system (Alpha Innotech). To assess B3 binding to different ds RNA sequences (Supplementary Figure S20), 6 μl solutions containing hairpin RNA (c = 1 μM) and fluorescein-labeled B3 (c = 2 μM) were incubated in binding buffer (TAE and 10% glycerol) at RT for 1 h, and then resolved using 15% non-denaturing polyacrylamide gels (acrylamide/bis-acrylamide (19:1) in TAE) at 150 V in running buffer (TAE) at 4°C for 1.5 h. Visualization of fluorescent gel-bound species was conducted using a Bio-Rad ChemiDoc (Bio-Rad). Subsequently, gels were stained with SYBR™ gold nucleic acid gel dye (Invitrogen) as described above and visualized using the same imaging system. To assess B3 binding to pre–miR-21 (Supplementary Figure S24), the RNA was prepared at a fixed concentration (c = 1 μM) and incubated with varying concentrations of fluorescein-labeled B3 (c = 0–5 μM) in binding buffer (TAE and 10% glycerol) at RT for 1 h. After incubation, bound nucleic acid complexes were resolved using 15% non-denaturing polyacrylamide gels (acrylamide/bis-acrylamide (19:1) in TAE) at 150 V in running buffer (TAE) at 4°C for 1.5 h, followed by visualization and staining with SYBR™ gold nucleic acid gel dye (Invitrogen).

Row | Structure (SMILES) | ΔTm of miR-21 duplex [1] | cell permeability by live cell confocal microscopy [2] | Random coil [3] | β-Sheet [3] | β-Turn [3] | Helix (α-helicity) [3] | binding to ds miR-21 in EMSA [4] | binding to ds pal-RNA in EMSA [5]
1 | CC(C)C[C@@H]1NC(=O)[C@@](C)(NC(=O)[C@H](CO)NC(=O)[C@H](CCCNC(=N)N)NC(=O)[C@H](CCCNC(=N)N)NC(=O)[C@H](CCC(N)=O)NC(=O)[C@H](CCC(=O)O)NC(=O)[C@H](CO)NC(=O)[C@@H]2CCCN2C(=O)[C@H](CO)NC(=O)[C@H](CCCCN)NC(=O)[C@H](Cc2c[nH]cn2)NC(=O)CNC(=O)[C@H](CCCNC(=N)N)NC(=O)[C@H](CCC(=O)O)NC(=O)[C@H](CCCCN)NC(=O)[C@H](CCCNC(=N)N)NC(=O)[C@H](CC(N)=O)NC(=O)[C@]2(C)CCCC=CCCCCCC[C@@](C)(NC(=O)[C@H](CCC(N)=O)NC(=O)[C@H](CCCCN)NC(=O)[C@H](CCCCN)NC(=O)COCCOCCNC(=S)Nc3ccc4c(c3)C(=O)OC43c4ccc(O)cc4Oc4cc(O)ccc43)C(=O)N[C@@H](CCC(N)=O)C(=O)N[C@@H](CCCNC(=N)N)C(=O)N[C@@H](CCCCN)C(=O)N[C@@H](CCCNC(=N)N)C(=O)N[C@@H](Cc3c[nH]cn3)C(=O)N[C@@H](CCCCN)C(=O)N2)CCCC=CCCC[C@@](C)(C(=O)N[C@@H](CCCNC(=N)N)C(N)=O)NC(=O)[C@H](Cc2c[nH]cn2)NC(=O)[C@H](Cc2c[nH]c3ccccc23)NC1=O [C1] ({FITC-AEEA}-KKQ[R8]QRKRHK[S5]NRKERGHKSPSEQRRS[S5]LWH[S5]R-NH2; staple 4-11, 28-32) | > 10 °C | confirming their cell permeability | 47.0% | 0.2% | 1.8% | 81.5% and 82–85% | formation of peptide/RNA complexes | full disappearance of the ds pal-RNA band
2 | CC(C)C[C@H](NC(=O)[C@]1(C)CCCC=CCCC[C@](C)(NC(=O)[C@H](CCC(=O)O)NC(=O)[C@H](CO)NC(=O)[C@@H]2CCCN2C(=O)[C@H](CO)NC(=O)[C@H](CCCCN)NC(=O)[C@H](Cc2c[nH]cn2)NC(=O)CNC(=O)[C@H](CCCNC(=N)N)NC(=O)[C@]2(C)CCCC=CCCC[C@](C)(NC(=O)[C@H](CCCCN)NC(=O)[C@H](Cc3c[nH]cn3)NC(=O)[C@H](CCCNC(=N)N)NC(=O)[C@H](CCCCN)NC(=O)[C@H](CCCNC(=N)N)NC(=O)[C@H](CCC(N)=O)NC(=O)[C@H](C)NC(=O)[C@H](CCC(N)=O)NC(=O)[C@H](CCCCN)NC(=O)[C@H](CCCCN)NC(=O)COCCOCCNC(=S)Nc3ccc4c(c3)C(=O)OC43c4ccc(O)cc4Oc4cc(O)ccc43)C(=O)N[C@@H](CC(N)=O)C(=O)N[C@@H](CCCNC(=N)N)C(=O)N[C@@H](CCCCN)C(=O)N2)C(=O)N[C@@H](CCCNC(=N)N)C(=O)N[C@@H](CCCNC(=N)N)C(=O)N[C@@H](CO)C(=O)N1)C(=O)N[C@@H](Cc1c[nH]c2ccccc12)C(=O)N[C@@H](Cc1c[nH]cn1)C(=O)N[C@@H](C)C(=O)N[C@@H](CCCNC(=N)N)C(N)=O [B3] ({FITC-AEEA}-KKQAQRKRHK[S5]NRK[S5]RGHKSPSE[S5]RRS[S5]LWHAR-NH2; staple 11-15, 24-28) | > 10 °C | confirming their cell permeability | 9.3% | 2.0% | 13.9% | 85.0% and 82–85% | formation of peptide/RNA complexes | full disappearance of the ds pal-RNA band
3 | CC(C)C[C@@H]1NC(=O)[C@H](CCC(=O)O)NC(=O)[C@H](CO)NC(=O)[C@@](C)(NC(=O)[C@H](CCCNC(=N)N)NC(=O)[C@H](CCC(N)=O)NC(=O)[C@H](CCC(=O)O)NC(=O)[C@H](CO)NC(=O)[C@@H]2CCCN2C(=O)[C@H](CO)NC(=O)[C@H](CCCCN)NC(=O)[C@H](Cc2c[nH]cn2)NC(=O)[C@]2(C)CCCC=CCCCCCC[C@@](C)(NC(=O)[C@H](Cc3c[nH]cn3)NC(=O)[C@H](CCCNC(=N)N)NC(=O)[C@H](CCCCN)NC(=O)[C@H](CCCNC(=N)N)NC(=O)[C@H](CCC(N)=O)NC(=O)[C@H](C)NC(=O)[C@H](CCC(N)=O)NC(=O)[C@H](CCCCN)NC(=O)[C@H](CCCCN)NC(=O)COCCOCCNC(=S)Nc3ccc4c(c3)C(=O)OC43c4ccc(O)cc4Oc4cc(O)ccc43)C(=O)N[C@@H](CC(C)C)C(=O)N[C@@H](CC(N)=O)C(=O)N[C@@H](CCCNC(=N)N)C(=O)N[C@@H](CCCCN)C(=O)N[C@@H](CCC(=O)O)C(=O)N[C@@H](CCCNC(=N)N)C(=O)N2)CCCC=CCCC[C@@](C)(C(=O)N[C@@H](Cc2c[nH]cn2)C(=O)N[C@@H](C)C(=O)N[C@@H](CCCNC(=N)N)C(N)=O)NC1=O [D1] ({FITC-AEEA}-KKQAQRKRH[R8]LNRKER[S5]HKSPSEQR[S5]SEL[S5]HAR-NH2; staple 10-17, 26-30) | only showed a mild effect on duplex stability | confirming their cell permeability | 31.2% | 12.0% | 9.9% | 48.5% | did not show binding | does not bind to ds pal-RNA
